Reference: the supplement of paper PMC10307832

What was measured:
Experiment in all cases: relative viability (nuclei count vs DMSO), 5 days (fraction); higher = more cells survive
Salubrinal + Navitoclax = compound: O=C(/C=C/c1ccccc1)NC(NC(=S)Nc1cccc2cccnc12)C(Cl)(Cl)Cl [Salubrinal] + CC1(C)CCC(c2ccc(Cl)cc2)=C(CN2CCN(c3ccc(C(=O)NS(=O)(=O)c4ccc(N[C@H](CCN5CCOCC5)CSc5ccccc5)c(S(=O)(=O)C(F)(F)F)c4)cc3)CC2)C1 [Navitoclax] (partner 0.5 µM)
Summary of the method: (§1)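 Cells from lung cancer lines were seeded into 1536-well plates and, one day later, dosed by pin tool. Treatments were either a single drug or a fixed dose of an anchor drug with five library-drug doses (not always all listed) in √10 steps. After 5 days, nuclei were stained in a one-step fixation (final 0.05% Triton X-100, 1% formaldehyde, 1 ug/ml Hoechst) and counted on 4× images, and relative viability is the treated-to-vehicle nuclei ratio, as the median of duplicate plates.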

Salubrinal + Crizotinib = compound: O=C(/C=C/c1ccccc1)NC(NC(=S)Nc1cccc2cccnc12)C(Cl)(Cl)Cl [Salubrinal] + C[C@@H](Oc1cc(-c2cnn(C3CCNCC3)c2)cnc1N)c1c(Cl)ccc(F)c1Cl [Crizotinib] (partner 1 µM)
Summary of the method: as §1

[1] = compound: Cc1ccc2nc(NCCN)c3ncc(C)n3c2c1 + Cc1cc(Nc2cc(N3CCN(C)CC3)nc(Sc3ccc(NC(=O)C4CC4)cc3)n2)n[nH]1 [Tozasertib] (partner 0.1 µM)
Summary of the method: as §1

Salubrinal + Pemetrexed = compound: O=C(/C=C/c1ccccc1)NC(NC(=S)Nc1cccc2cccnc12)C(Cl)(Cl)Cl [Salubrinal] + Nc1nc2[nH]cc(CCc3ccc(C(=O)N[C@@H](CCC(=O)O)C(=O)O)cc3)c2c(=O)[nH]1 [Pemetrexed] (partner 0.2 µM)
Summary of the method: as §1

## NCI-H1703
Salubrinal + Navitoclax; first compound 0.08 µM
  relative viability: 1.39
Salubrinal + Navitoclax; first compound 0.253 µM
  relative viability: 1.12
Salubrinal + Navitoclax; first compound 0.8 µM
  relative viability: 0.971
Salubrinal + Navitoclax; first compound 2.53 µM
  relative viability: 0.901
Salubrinal + Navitoclax; first compound 8 µM
  relative viability: 0.964
Salubrinal + Crizotinib; first compound 0.08 µM
  relative viability: 0.535
Salubrinal + Crizotinib; first compound 0.8 µM
  relative viability: 1.06
Salubrinal + Crizotinib; first compound 2.53 µM
  relative viability: 0.701
Salubrinal + Crizotinib; first compound 8 µM
  relative viability: 0.576

## LCLC-103H
[1]; first compound 0.04 µM
  relative viability: 0.426
[1]; first compound 0.1265 µM
  relative viability: 0.525
[1]; first compound 0.4 µM
  relative viability: 0.384
[1]; first compound 1.265 µM
  relative viability: 0.427
[1]; first compound 4 µM
  relative viability: 0.439
Salubrinal + Crizotinib; first compound 0.08 µM
  relative viability: 1.07
Salubrinal + Crizotinib; first compound 0.253 µM
  relative viability: 1.06
Salubrinal + Crizotinib; first compound 0.8 µM
  relative viability: 1.05
Salubrinal + Crizotinib; first compound 2.53 µM
  relative viability: 1.07
Salubrinal + Crizotinib; first compound 8 µM
  relative viability: 0.984
Salubrinal + Pemetrexed; first compound 0.08 µM
  relative viability: 0.439
Salubrinal + Pemetrexed; first compound 0.253 µM
  relative viability: 0.539
Salubrinal + Pemetrexed; first compound 0.8 µM
  relative viability: 0.506
Salubrinal + Pemetrexed; first compound 2.53 µM
  relative viability: 0.461
Salubrinal + Pemetrexed; first compound 8 µM
  relative viability: 0.457

## Calu-6
Salubrinal + Navitoclax; first compound 0.08 µM
  relative viability: 0.903
Salubrinal + Navitoclax; first compound 0.253 µM
  relative viability: 0.749
Salubrinal + Navitoclax; first compound 0.8 µM
  relative viability: 0.888
Salubrinal + Navitoclax; first compound 2.53 µM
  relative viability: 0.877
Salubrinal + Navitoclax; first compound 8 µM
  relative viability: 0.809
Salubrinal + Crizotinib; first compound 0.08 µM
  relative viability: 0.949
Salubrinal + Crizotinib; first compound 0.253 µM
  relative viability: 0.644
Salubrinal + Crizotinib; first compound 0.8 µM
  relative viability: 0.898
Salubrinal + Crizotinib; first compound 2.53 µM
  relative viability: 0.821
Salubrinal + Crizotinib; first compound 8 µM
  relative viability: 0.728

## NCI-H1648
[1]; first compound 0.04 µM
  relative viability: 0.498
[1]; first compound 0.4 µM
  relative viability: 0.546
[1]; first compound 4 µM
  relative viability: 0.3
Salubrinal + Pemetrexed; first compound 0.08 µM
  relative viability: 0.843
Salubrinal + Pemetrexed; first compound 0.253 µM
  relative viability: 0.637
Salubrinal + Pemetrexed; first compound 0.8 µM
  relative viability: 0.759
Salubrinal + Pemetrexed; first compound 2.53 µM
  relative viability: 0.705
Salubrinal + Pemetrexed; first compound 8 µM
  relative viability: 0.584

## NCI-H358
[1]; first compound 0.04 µM
  relative viability: 0.11
[1]; first compound 0.1265 µM
  relative viability: 0.134
[1]; first compound 0.4 µM
  relative viability: 0.0909
[1]; first compound 1.265 µM
  relative viability: 0.101
[1]; first compound 4 µM
  relative viability: 0.098
Salubrinal + Crizotinib; first compound 0.08 µM
  relative viability: 0.559
Salubrinal + Crizotinib; first compound 0.253 µM
  relative viability: 0.553
Salubrinal + Crizotinib; first compound 0.8 µM
  relative viability: 0.506
Salubrinal + Crizotinib; first compound 2.53 µM
  relative viability: 0.51
Salubrinal + Crizotinib; first compound 8 µM
  relative viability: 0.478
Salubrinal + Pemetrexed; first compound 0.08 µM
  relative viability: 0.181
Salubrinal + Pemetrexed; first compound 0.253 µM
  relative viability: 0.176
Salubrinal + Pemetrexed; first compound 0.8 µM
  relative viability: 0.157
Salubrinal + Pemetrexed; first compound 2.53 µM
  relative viability: 0.153
Salubrinal + Pemetrexed; first compound 8 µM
  relative viability: 0.168

## EBC-1
Salubrinal + Navitoclax; first compound 0.08 µM
  relative viability: 0.349
Salubrinal + Navitoclax; first compound 0.253 µM
  relative viability: 0.332
Salubrinal + Navitoclax; first compound 0.8 µM
  relative viability: 0.435
Salubrinal + Navitoclax; first compound 2.53 µM
  relative viability: 0.399
Salubrinal + Navitoclax; first compound 8 µM
  relative viability: 0.287
Salubrinal + Crizotinib; first compound 0.08 µM
  relative viability: 0.207
Salubrinal + Crizotinib; first compound 0.253 µM
  relative viability: 0.214
Salubrinal + Crizotinib; first compound 0.8 µM
  relative viability: 0.22
Salubrinal + Crizotinib; first compound 2.53 µM
  relative viability: 0.211
Salubrinal + Crizotinib; first compound 8 µM
  relative viability: 0.18

## NCI-H1299
Salubrinal + Navitoclax; first compound 0.08 µM
  relative viability: 1.06
Salubrinal + Navitoclax; first compound 0.253 µM
  relative viability: 1.07
Salubrinal + Navitoclax; first compound 0.8 µM
  relative viability: 1.07
Salubrinal + Navitoclax; first compound 2.53 µM
  relative viability: 0.986
Salubrinal + Navitoclax; first compound 8 µM
  relative viability: 1.11
Salubrinal + Crizotinib; first compound 0.08 µM
  relative viability: 0.993
Salubrinal + Crizotinib; first compound 0.253 µM
  relative viability: 0.802
Salubrinal + Crizotinib; first compound 0.8 µM
  relative viability: 0.943
Salubrinal + Crizotinib; first compound 2.53 µM
  relative viability: 0.99
Salubrinal + Crizotinib; first compound 8 µM
  relative viability: 0.925

## NCI-H522
[1]; first compound 0.04 µM
  relative viability: 0.557
[1]; first compound 0.1265 µM
  relative viability: 0.647
[1]; first compound 0.4 µM
  relative viability: 0.555
[1]; first compound 1.265 µM
  relative viability: 0.517
[1]; first compound 4 µM
  relative viability: 0.592
Salubrinal + Pemetrexed; first compound 0.08 µM
  relative viability: 1.24
Salubrinal + Pemetrexed; first compound 0.253 µM
  relative viability: 0.933
Salubrinal + Pemetrexed; first compound 0.8 µM
  relative viability: 1.09
Salubrinal + Pemetrexed; first compound 2.53 µM
  relative viability: 1.06
Salubrinal + Pemetrexed; first compound 8 µM
  relative viability: 1.07

## IA-LM
Salubrinal + Navitoclax; first compound 0.08 µM
  relative viability: 0.847
Salubrinal + Navitoclax; first compound 0.253 µM
  relative viability: 0.79
Salubrinal + Navitoclax; first compound 0.8 µM
  relative viability: 0.782
Salubrinal + Navitoclax; first compound 2.53 µM
  relative viability: 0.595
Salubrinal + Navitoclax; first compound 8 µM
  relative viability: 0.533
Salubrinal + Crizotinib; first compound 0.08 µM
  relative viability: 0.784
Salubrinal + Crizotinib; first compound 0.253 µM
  relative viability: 0.602
Salubrinal + Crizotinib; first compound 0.8 µM
  relative viability: 1.19
Salubrinal + Crizotinib; first compound 2.53 µM
  relative viability: 0.767
Salubrinal + Crizotinib; first compound 8 µM
  relative viability: 0.575

## NCI-H1793
[1]; first compound 0.04 µM
  relative viability: 0.603
[1]; first compound 0.1265 µM
  relative viability: 0.375
[1]; first compound 0.4 µM
  relative viability: 0.371
[1]; first compound 1.265 µM
  relative viability: 0.32
[1]; first compound 4 µM
  relative viability: 0.375
Salubrinal + Navitoclax; first compound 0.08 µM
  relative viability: 0.476
Salubrinal + Navitoclax; first compound 0.253 µM
  relative viability: 0.432
Salubrinal + Navitoclax; first compound 0.8 µM
  relative viability: 0.431
Salubrinal + Navitoclax; first compound 2.53 µM
  relative viability: 0.351
Salubrinal + Navitoclax; first compound 8 µM
  relative viability: 0.339
Salubrinal + Pemetrexed; first compound 0.08 µM
  relative viability: 1.13
Salubrinal + Pemetrexed; first compound 0.253 µM
  relative viability: 0.81
Salubrinal + Pemetrexed; first compound 0.8 µM
  relative viability: 1.24
Salubrinal + Pemetrexed; first compound 2.53 µM
  relative viability: 0.805
Salubrinal + Pemetrexed; first compound 8 µM
  relative viability: 0.76

## NCI-H727
[1]; first compound 0.04 µM
  relative viability: 0.599
[1]; first compound 0.1265 µM
  relative viability: 0.688
[1]; first compound 0.4 µM
  relative viability: 0.704
[1]; first compound 1.265 µM
  relative viability: 0.578
[1]; first compound 4 µM
  relative viability: 0.641
Salubrinal + Navitoclax; first compound 0.08 µM
  relative viability: 0.519
Salubrinal + Navitoclax; first compound 0.253 µM
  relative viability: 0.482
Salubrinal + Navitoclax; first compound 0.8 µM
  relative viability: 0.443
Salubrinal + Navitoclax; first compound 2.53 µM
  relative viability: 0.395
Salubrinal + Navitoclax; first compound 8 µM
  relative viability: 0.474
Salubrinal + Crizotinib; first compound 0.08 µM
  relative viability: 0.943
Salubrinal + Crizotinib; first compound 0.253 µM
  relative viability: 0.559
Salubrinal + Crizotinib; first compound 0.8 µM
  relative viability: 1.03
Salubrinal + Crizotinib; first compound 2.53 µM
  relative viability: 0.999
Salubrinal + Crizotinib; first compound 8 µM
  relative viability: 0.84

## NCI-H650
[1]; first compound 0.04 µM
  relative viability: 0.725
[1]; first compound 0.1265 µM
  relative viability: 0.727
[1]; first compound 0.4 µM
  relative viability: 0.752
[1]; first compound 1.265 µM
  relative viability: 0.615
[1]; first compound 4 µM
  relative viability: 0.746
Salubrinal + Crizotinib; first compound 0.08 µM
  relative viability: 0.701
Salubrinal + Crizotinib; first compound 0.253 µM
  relative viability: 0.656
Salubrinal + Crizotinib; first compound 0.8 µM
  relative viability: 0.792
Salubrinal + Crizotinib; first compound 2.53 µM
  relative viability: 0.637
Salubrinal + Crizotinib; first compound 8 µM
  relative viability: 0.765
Salubrinal + Pemetrexed; first compound 0.08 µM
  relative viability: 1.03
Salubrinal + Pemetrexed; first compound 0.253 µM
  relative viability: 1.14
Salubrinal + Pemetrexed; first compound 0.8 µM
  relative viability: 1.05
Salubrinal + Pemetrexed; first compound 2.53 µM
  relative viability: 1.05
Salubrinal + Pemetrexed; first compound 8 µM
  relative viability: 0.895

## NCI-H661
[1]; first compound 0.04 µM
  relative viability: 0.358
[1]; first compound 0.1265 µM
  relative viability: 0.353
[1]; first compound 0.4 µM
  relative viability: 0.366
[1]; first compound 1.265 µM
  relative viability: 0.321
[1]; first compound 4 µM
  relative viability: 0.372
Salubrinal + Crizotinib; first compound 0.08 µM
  relative viability: 0.934
Salubrinal + Crizotinib; first compound 0.8 µM
  relative viability: 1.1
Salubrinal + Crizotinib; first compound 2.53 µM
  relative viability: 1.01
Salubrinal + Crizotinib; first compound 8 µM
  relative viability: 1.17
Salubrinal + Pemetrexed; first compound 0.08 µM
  relative viability: 0.942
Salubrinal + Pemetrexed; first compound 0.253 µM
  relative viability: 0.808
Salubrinal + Pemetrexed; first compound 0.8 µM
  relative viability: 0.936
Salubrinal + Pemetrexed; first compound 2.53 µM
  relative viability: 0.89
Salubrinal + Pemetrexed; first compound 8 µM
  relative viability: 0.91

## NCI-H1623
[1]; first compound 0.04 µM
  relative viability: 0.453
[1]; first compound 0.1265 µM
  relative viability: 0.486
[1]; first compound 0.4 µM
  relative viability: 0.451
[1]; first compound 1.265 µM
  relative viability: 0.355
[1]; first compound 4 µM
  relative viability: 0.354
